# Experimental data: article PMC7053805 (Toxicology in vitro : an international journal published in …, 2019)
# Read-outs that look alike come from different tables or passages of the source.
# How the values were obtained:
# [1] = cited from earlier work
# [2] = tested on: Primary human renal proximal tubule epithelial cells (RPTECs); details: for total amount of cadmium assumed accumulated in RPTECs: estimated from measured uptake
# [3] = Rapid equilibrium dialysis; details: for protein binding in the culture media: serum-supplemented media, rapid equilibrium dialysis
# [4] = smelter workers; ref Ellis et al. (1981); cited from earlier work
# [5] = Chip-to-human extrapolation; details: for predicted renal clearance/GFR ratio from the chip: Chip+Model, ETS=0
# [6] = in vitro
# [7] = human; cited from earlier work
# [8] = serum
# [9] = in vitro; details: human
# [10] = human, indicated by in vivo renal clearance data; ref Contrepois et al., 1985; cited from earlier work
# [11] = tested on: canine renal tubule cells; details: ref MacKay et al., 1998, cited from earlier work
# [12] = effluent compared against stock solutions
# [13] = kidney tubule chip, adjusted for non-specific binding, both concentrations
compound,measurement,setting,value
"[Cl][Cd][Cl] [Cadmium, cadmium chloride]",geometric blood level,"[1]; general population (≥1 year of age) in the USA, ref Agency for Toxic Substances and Disease Registry",~ 0.002 μM
same,Cmax,"[1]; general population, Nigeria, ref Alli, 2015",~100 nM
same,Cmax,"[1]; human occupational, Nigeria, ref Alli, 2015",~1000 nM
same,total amount of cadmium assumed accumulated in RPTECs,[2]; after 22 days at 0.05 μM,3.2 µg/g
same,total amount of cadmium assumed accumulated in RPTECs,[2]; after 22 days at 0.5 μM,16.5 µg/g
same,uptake/reabsorption within the kidney tubule chip,[2]; [12],uptake
same,reabsorption (loss) from adjusted Cout/Cin,[2]; [13],24-43%
same,fraction protein-bound in the culture media,[3]; binding to serum proteins in culture media,up to 71%
same,concentrations in human kidney,[4],up to 400 μg/g
same,predicted renal clearance/GFR ratio from the chip,[5]; cadmium 0.05 μM (free 0.0145 μM),0.14±0.05
same,predicted renal clearance/GFR ratio from the chip,[5]; cadmium 0.5 μM (free 0.209 μM),0.39±0.17
same,back-calculated Cu/Cf in the chip,"[5]; from in vivo modeled CLR/GFR ratio 0.26 (cadmium, lower concentration)",68%
same,back-calculated Cu/Cf in the chip,"[5]; from in vivo modeled CLR/GFR ratio 0.29 (cadmium, higher concentration)",71%
"N.N.[Cl][Pt][Cl] [Cisplatin, cisplatin]",Cmax,"[1]; human, reported range, ref Verschraagen et al., 2003",1400 to 13900 nM
same,recovery from effluent samples,"[2]; cell-seeded chip, at equilibrium",~100%
same,uptake/reabsorption within the kidney tubule chip,[2]; [12],little uptake
"CN1CC(=O)NC1=N [Creatinine, creatinine]",reabsorption (loss) from adjusted Cout/Cin,[2]; human,0-5%
same,fraction unbound,[3],0.934 ± 0.06
same,protein binding in the culture media,[3],minimal protein binding
"CNC(C)C1CCC(N)C(OC2C(N)CC(N)C(OC3OCC(C)(O)C(NC)C3O)C2O)O1 (stereo not drawn) [Gentamicin, gentamicin]",fraction unbound,[6]; Free fraction in cell culture media,0.897 ± 0.005
same,Cmax,"[1]; human, in vivo",~50000 nM
same,serum concentrations,[1]; in vivo,5300 ± 1300 ng/mL
same,serum protein binding,[7],no serum protein binding
same,protein binding in the culture media,[8],minimal protein binding
same,uptake/reabsorption within the kidney tubule chip,[2],little uptake
same,reabsorption (loss) from adjusted Cout/Cin,[2]; human,0-5%
same,net uptake by the RPTECs,"[2]; tissue chip, on average, 200 and 600 μM",< 0.5%
same,recovery,[9],~100%
same,re-absorption in vivo,[10],around 20%
"O=C(O)C(F)(F)C(F)(F)C(F)(F)C(F)(F)C(F)(F)C(F)(F)C(F)(F)F [PFOA, perfluorooctanoic acid]",fraction unbound,[6],0.986 ± 0.149
same,blood levels,"[1]; occupationally exposed subjects, ref ATSDR, 2018",≤ 24200 nM
same,uptake/reabsorption within the kidney tubule chip,[2]; [12],uptake
same,reabsorption (loss) from adjusted Cout/Cin,[2]; [13],3-13%
same,protein binding in the culture media,[3],minimal protein binding
inulin,recovery in luminal effluent,[11]; bioreactor with confluent cells,≥ 98.9%
same,recovery in luminal effluent,[11]; blank devices,≤ 7.4%
